In paper PMC6746691 (European Journal of Drug Metabolism and Pharmacokinetics, 2019):

Key:
[1] = Vancomycin clinical pharmacokinetics and serum concentrations; conditions: for AUC per TDM adjusted dose / AUC per initial dose: NONMEM; for AUC per TDM adjusted dose / t1/2 / AUC per initial dose / Initial vancomycin serum concentration, Peak / Initial vancomycin serum concentration, Trough-2 / Initial vancomycin serum concentration, Trough-1: median [IQR]; for Cl / Ke / Vd / t1/2: at treatment initiation; for Cl / Ke / Vd / Post-dose adjustment trough concentration: mean ± SD, SD; for AUC per initial dose: pre-TDM dose; for Initial vancomycin serum concentration, Peak / Initial vancomycin serum concentration, Trough-2 / Initial vancomycin serum concentration, Trough-1: pre-TDM; for Initial vancomycin serum concentration, Peak: 1–2 h post fourth dose infusion; for Initial vancomycin serum concentration, Trough-2: 30 min before the fifth dose; for Initial vancomycin serum concentration, Trough-1: 30 min before the fourth dose
[2] = Vancomycin treatment safety outcomes; format: in vivo, hospitalized adults (patients); conditions: for Neutropenia: absolute neutrophil counts < 1000/μL
[3] = test system: suspected/confirmed staphylococcal or other Gram-positive infection; experiment: Clinical effectiveness; format: in vivo, hospitalized adults (patients); conditions: for Length of hospitalization: median [min–max]
[4] = peak–trough-monitoring group (n = 30)
[5] = trough-only-monitoring group (n = 35)

CN[C@H](CC(C)C)C(=O)N[C@H]1C(=O)N[C@@H](CC(N)=O)C(=O)N[C@H]2C(=O)N[C@H]3C(=O)N[C@H](C(=O)N[C@H](C(=O)O)c4cc(O)cc(O)c4-c4cc3ccc4O)[C@H](O)c3ccc(c(Cl)c3)Oc3cc2cc(c3O[C@@H]2O[C@H](CO)[C@@H](O)[C@H](O)[C@H]2O[C@H]2C[C@](C)(N)[C@H](O)[C@H](C)O2)Oc2ccc(cc2Cl)[C@H]1O [vancomycin]
AUC per TDM adjusted dose [1, 4]: 223 [168.82] mg*h/L | AUC per TDM adjusted dose [1, 5]: 270 [156.02] mg*h/L | Cl [1, 4]: 4.24 ± 2.20 L/h | Ke [1, 4]: 0.089 ± 0.051 h⁻¹ | Vd [1, 4]: 51.14 ± 9.96 L | t1/2 [1, 4]: 7.23 [9.75] h | Cl [1, 5]: 4.15 ± 2.22 L/h | Ke [1, 5]: 0.094 ± 0.05 h⁻¹ | Vd [1, 5]: 48.5 ± 10.7 L | t1/2 [1, 5]: 8.01 [11.12] h | Post-dose adjustment trough concentration [1, 4]: 15.6 ± 3.49 mg/L | AUC per initial dose [1, 4]: 228 [273.01] mg*h/L | AUC per initial dose [1, 5]: 227 [195.6] mg*h/L | Initial vancomycin serum concentration, Peak [1, 4]: 27.9 [17.8] mg/L | Initial vancomycin serum concentration, Peak [1, 5]: 25 [10] mg/L | Initial vancomycin serum concentration, Trough-2 [1, 4]: 8.9 [15.1] mg/L | Initial vancomycin serum concentration, Trough-2 [1, 5]: 10.6 [10.5] mg/L | Initial vancomycin serum concentration, Trough-1 [1, 4]: 8.4 [12.9] mg/L | Initial vancomycin serum concentration, Trough-1 [1, 5]: 9 [8.3] mg/L | Post-dose adjustment trough concentration [1, 5]: 16.8 ± 3.09 mg/L | All-cause mortality [2, 4]: 2 (6.7) n (%) | Neutropenia [2, 4]: 1 (3.3) n (%) | All-cause mortality [2, 5]: 3 (8.6) n (%) | Neutropenia [2, 5]: 3 (8.6) n (%) | Therapeutic failure [3, 4]: 7 (23.3) n (%) | Length of hospitalization [3, 4]: 15.5 [4–68.9] days | Therapeutic failure [3, 5]: 18 (51.4) n (%) | Therapeutic cure ([3]; trough-only-monitoring group (n = 35), clinical and/or microbiologic cure, intention-to-treat): 17 (48.6) n (%) | Length of hospitalization [3, 5]: 20 [6–117] days
